According to ChEMBL document CHEMBL5291721, “A preclinical secondary pharmacology resource illuminates target-adverse drug reaction associations of marketed drugs” (Nat Commun, 2023):

How the values were obtained:
Androgen receptor = molecular target: T1, Androgen receptor (Rattus norvegicus, UniProt P15207); type: functional
T1 sequence (P15207 whole entry): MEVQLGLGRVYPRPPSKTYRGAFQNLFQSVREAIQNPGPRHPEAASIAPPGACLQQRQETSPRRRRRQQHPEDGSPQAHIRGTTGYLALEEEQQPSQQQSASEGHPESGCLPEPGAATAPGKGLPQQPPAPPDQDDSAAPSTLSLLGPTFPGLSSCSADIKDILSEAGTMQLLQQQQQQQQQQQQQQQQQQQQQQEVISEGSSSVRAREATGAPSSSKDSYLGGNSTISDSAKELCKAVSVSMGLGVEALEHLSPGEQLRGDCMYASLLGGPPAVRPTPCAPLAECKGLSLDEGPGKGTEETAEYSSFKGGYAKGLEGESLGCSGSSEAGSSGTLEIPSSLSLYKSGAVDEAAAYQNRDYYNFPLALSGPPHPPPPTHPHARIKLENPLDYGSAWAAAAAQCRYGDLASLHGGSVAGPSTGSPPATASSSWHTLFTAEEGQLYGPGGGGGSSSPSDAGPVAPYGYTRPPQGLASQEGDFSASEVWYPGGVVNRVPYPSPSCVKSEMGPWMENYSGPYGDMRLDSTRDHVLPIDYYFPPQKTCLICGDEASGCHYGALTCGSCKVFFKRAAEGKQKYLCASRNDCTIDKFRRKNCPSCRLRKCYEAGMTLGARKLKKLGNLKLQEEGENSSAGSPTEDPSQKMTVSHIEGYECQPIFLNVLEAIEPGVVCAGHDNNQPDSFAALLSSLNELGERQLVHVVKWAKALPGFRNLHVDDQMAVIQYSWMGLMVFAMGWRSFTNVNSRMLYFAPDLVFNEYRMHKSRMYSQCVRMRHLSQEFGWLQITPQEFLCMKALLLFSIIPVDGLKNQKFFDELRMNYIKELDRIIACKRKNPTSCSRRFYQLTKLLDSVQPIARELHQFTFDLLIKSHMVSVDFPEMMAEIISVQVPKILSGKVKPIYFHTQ

Histamine H1 receptor = Histamine H1 receptor (Homo sapiens, UniProt P35367); type: functional, cell-based
Histamine H1 receptor, sequence (P35367 whole entry): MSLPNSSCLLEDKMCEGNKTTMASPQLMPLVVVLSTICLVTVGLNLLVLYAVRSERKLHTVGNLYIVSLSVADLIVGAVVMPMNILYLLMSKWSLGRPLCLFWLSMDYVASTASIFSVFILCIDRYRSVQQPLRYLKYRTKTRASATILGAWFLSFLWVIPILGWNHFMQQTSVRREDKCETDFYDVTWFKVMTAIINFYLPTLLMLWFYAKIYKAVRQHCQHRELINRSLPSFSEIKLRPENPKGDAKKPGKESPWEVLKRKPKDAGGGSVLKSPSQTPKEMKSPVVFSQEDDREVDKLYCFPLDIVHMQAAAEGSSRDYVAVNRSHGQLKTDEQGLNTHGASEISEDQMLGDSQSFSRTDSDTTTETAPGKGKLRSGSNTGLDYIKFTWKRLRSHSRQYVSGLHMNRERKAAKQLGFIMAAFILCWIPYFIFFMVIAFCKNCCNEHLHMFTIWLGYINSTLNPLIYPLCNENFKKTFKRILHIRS

[1] = molecular target: T2, Peroxisome proliferator-activated receptor gamma (Homo sapiens, UniProt P37231); type: functional
T2 sequence (P37231 whole entry): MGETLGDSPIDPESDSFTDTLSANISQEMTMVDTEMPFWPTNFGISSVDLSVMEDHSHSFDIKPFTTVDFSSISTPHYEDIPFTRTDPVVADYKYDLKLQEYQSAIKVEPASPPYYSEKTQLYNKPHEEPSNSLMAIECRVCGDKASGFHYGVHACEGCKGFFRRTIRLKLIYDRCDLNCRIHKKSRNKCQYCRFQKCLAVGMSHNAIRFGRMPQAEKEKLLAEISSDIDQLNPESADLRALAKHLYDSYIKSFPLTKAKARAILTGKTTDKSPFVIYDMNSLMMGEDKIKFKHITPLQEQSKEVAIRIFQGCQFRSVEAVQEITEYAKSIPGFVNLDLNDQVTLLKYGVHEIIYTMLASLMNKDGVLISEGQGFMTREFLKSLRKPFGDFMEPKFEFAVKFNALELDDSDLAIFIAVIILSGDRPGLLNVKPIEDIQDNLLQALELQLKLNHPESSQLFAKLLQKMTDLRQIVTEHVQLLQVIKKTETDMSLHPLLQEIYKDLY

[2] = molecular target: T3, 5-hydroxytryptamine receptor 1A (Homo sapiens, UniProt P08908)
T3 sequence (P08908 whole entry): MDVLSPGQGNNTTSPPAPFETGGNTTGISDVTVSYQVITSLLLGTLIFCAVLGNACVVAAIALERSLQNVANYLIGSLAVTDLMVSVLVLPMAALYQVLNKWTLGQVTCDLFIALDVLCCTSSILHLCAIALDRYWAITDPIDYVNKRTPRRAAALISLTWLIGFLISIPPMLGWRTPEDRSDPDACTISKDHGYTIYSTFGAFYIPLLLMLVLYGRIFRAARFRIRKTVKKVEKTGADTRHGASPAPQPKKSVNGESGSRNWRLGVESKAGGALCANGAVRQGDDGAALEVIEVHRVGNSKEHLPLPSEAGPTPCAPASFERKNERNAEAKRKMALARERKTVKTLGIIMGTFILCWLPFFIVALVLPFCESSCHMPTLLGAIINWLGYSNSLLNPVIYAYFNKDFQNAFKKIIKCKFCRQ

Progesterone receptor = molecular target: T4, Progesterone receptor (Homo sapiens, UniProt P06401)
T4 sequence (P06401 whole entry): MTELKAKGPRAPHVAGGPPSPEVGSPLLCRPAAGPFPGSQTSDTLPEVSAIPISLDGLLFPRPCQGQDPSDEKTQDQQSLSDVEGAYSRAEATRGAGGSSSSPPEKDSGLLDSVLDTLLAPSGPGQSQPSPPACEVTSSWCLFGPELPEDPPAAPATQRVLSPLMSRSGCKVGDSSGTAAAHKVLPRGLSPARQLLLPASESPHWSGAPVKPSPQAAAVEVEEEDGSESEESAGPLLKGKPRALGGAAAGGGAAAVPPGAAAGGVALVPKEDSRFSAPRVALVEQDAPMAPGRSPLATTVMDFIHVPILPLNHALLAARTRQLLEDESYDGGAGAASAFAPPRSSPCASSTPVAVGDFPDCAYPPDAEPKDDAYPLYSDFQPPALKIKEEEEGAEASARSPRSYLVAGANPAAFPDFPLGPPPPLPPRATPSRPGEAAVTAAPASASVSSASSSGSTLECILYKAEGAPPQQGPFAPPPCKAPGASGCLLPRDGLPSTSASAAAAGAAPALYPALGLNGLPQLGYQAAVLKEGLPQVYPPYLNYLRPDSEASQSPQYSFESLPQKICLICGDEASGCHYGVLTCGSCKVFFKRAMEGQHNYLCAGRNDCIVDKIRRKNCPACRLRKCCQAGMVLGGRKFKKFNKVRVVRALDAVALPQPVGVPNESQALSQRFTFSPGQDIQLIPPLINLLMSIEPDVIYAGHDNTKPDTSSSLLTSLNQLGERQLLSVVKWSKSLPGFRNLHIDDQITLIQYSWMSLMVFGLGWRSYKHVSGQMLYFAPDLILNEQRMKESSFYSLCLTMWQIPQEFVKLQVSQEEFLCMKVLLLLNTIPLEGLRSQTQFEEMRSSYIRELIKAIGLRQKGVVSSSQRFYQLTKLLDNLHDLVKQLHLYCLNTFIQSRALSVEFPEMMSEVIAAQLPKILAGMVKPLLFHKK

[3] = molecular target: Neurotensin receptor type 1 (Homo sapiens, UniProt P30989)
Neurotensin receptor type 1, sequence (P30989 whole entry): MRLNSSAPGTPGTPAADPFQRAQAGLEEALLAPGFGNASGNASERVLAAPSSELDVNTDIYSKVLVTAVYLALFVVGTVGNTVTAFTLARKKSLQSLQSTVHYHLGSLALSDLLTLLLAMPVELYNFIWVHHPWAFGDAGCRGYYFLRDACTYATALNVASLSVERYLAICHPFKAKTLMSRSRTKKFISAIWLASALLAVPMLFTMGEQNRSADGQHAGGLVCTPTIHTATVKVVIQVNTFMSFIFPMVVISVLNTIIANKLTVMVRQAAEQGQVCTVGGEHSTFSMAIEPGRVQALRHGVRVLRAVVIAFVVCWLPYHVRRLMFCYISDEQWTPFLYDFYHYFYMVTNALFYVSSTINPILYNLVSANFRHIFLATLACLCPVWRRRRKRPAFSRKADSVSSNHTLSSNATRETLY

[4] = molecular target: Beta-3 adrenergic receptor (Homo sapiens, UniProt P13945)
Beta-3 adrenergic receptor, sequence (P13945 whole entry): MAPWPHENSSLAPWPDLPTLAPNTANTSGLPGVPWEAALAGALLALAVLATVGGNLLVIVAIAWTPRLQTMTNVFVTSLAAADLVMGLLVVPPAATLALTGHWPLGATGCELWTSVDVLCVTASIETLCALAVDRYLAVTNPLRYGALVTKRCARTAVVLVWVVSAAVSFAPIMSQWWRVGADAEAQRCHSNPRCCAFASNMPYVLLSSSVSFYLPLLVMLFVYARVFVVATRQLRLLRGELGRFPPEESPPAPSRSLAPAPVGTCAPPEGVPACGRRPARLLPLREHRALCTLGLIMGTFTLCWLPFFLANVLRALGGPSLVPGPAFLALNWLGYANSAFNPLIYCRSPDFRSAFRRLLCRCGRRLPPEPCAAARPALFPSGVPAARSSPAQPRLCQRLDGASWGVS

[5] = molecular target: Voltage-dependent N-type calcium channel subunit alpha-1B (Rattus norvegicus, UniProt Q02294); type: functional
Voltage-dependent N-type calcium channel subunit alpha-1B, sequence (Q02294 whole entry): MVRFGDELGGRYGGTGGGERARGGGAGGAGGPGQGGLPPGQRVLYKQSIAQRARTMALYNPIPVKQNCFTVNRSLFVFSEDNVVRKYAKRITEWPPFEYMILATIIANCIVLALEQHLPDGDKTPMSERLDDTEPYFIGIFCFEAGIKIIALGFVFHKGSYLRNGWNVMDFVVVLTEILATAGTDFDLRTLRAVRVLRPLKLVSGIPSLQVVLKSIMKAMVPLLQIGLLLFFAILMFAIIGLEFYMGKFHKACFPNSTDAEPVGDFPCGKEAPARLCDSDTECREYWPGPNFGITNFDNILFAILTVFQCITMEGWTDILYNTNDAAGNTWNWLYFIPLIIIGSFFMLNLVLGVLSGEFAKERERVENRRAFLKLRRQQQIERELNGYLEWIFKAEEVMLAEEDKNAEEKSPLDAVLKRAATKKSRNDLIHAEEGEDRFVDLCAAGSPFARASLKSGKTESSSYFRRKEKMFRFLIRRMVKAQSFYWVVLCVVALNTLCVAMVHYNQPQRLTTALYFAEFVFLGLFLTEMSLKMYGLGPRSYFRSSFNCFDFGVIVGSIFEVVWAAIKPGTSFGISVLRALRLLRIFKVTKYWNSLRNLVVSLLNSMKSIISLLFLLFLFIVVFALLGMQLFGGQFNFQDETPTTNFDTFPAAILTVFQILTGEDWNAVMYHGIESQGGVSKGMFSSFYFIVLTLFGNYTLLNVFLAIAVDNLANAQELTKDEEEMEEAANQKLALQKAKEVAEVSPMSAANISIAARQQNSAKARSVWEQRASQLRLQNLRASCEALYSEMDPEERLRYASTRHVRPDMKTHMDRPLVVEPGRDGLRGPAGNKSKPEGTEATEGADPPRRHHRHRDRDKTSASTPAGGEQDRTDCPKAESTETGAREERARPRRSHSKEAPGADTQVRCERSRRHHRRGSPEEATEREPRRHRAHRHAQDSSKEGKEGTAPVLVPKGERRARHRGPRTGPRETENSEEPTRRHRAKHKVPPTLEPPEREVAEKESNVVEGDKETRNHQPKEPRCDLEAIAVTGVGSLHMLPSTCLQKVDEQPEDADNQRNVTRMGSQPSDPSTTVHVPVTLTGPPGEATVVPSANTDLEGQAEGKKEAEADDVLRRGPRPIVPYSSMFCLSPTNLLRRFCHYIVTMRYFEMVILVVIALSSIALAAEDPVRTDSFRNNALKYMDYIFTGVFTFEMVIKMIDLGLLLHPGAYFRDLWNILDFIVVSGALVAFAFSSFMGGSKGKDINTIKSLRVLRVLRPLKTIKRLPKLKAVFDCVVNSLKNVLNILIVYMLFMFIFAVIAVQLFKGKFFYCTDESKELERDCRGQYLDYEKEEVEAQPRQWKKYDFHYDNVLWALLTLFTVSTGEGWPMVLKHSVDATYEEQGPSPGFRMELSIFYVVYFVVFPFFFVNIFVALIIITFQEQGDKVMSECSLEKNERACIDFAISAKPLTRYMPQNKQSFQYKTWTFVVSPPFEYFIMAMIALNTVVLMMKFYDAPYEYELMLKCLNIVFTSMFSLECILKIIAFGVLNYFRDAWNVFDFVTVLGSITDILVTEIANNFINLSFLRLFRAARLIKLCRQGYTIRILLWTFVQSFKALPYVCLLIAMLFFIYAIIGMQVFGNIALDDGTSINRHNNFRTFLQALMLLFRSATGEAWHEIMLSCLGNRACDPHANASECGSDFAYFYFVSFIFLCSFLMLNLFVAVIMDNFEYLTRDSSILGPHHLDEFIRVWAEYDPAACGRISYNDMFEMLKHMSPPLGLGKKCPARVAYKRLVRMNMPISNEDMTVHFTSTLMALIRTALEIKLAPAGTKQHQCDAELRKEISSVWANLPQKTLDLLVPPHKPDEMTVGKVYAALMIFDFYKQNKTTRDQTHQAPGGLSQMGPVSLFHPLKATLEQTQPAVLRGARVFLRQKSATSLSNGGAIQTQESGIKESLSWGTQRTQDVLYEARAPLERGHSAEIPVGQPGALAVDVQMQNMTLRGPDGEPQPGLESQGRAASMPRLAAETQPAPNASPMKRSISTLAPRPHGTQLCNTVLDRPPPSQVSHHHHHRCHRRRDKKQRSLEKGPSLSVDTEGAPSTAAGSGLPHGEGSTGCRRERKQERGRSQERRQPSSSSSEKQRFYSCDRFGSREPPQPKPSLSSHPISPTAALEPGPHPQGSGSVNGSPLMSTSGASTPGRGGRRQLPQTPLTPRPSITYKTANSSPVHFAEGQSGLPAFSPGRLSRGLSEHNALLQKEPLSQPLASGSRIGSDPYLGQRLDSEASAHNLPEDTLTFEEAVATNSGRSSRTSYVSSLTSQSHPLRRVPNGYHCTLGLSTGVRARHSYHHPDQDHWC

Histamine H2 receptor = Histamine H2 receptor (Homo sapiens, UniProt P25021)
Histamine H2 receptor, sequence (P25021 whole entry): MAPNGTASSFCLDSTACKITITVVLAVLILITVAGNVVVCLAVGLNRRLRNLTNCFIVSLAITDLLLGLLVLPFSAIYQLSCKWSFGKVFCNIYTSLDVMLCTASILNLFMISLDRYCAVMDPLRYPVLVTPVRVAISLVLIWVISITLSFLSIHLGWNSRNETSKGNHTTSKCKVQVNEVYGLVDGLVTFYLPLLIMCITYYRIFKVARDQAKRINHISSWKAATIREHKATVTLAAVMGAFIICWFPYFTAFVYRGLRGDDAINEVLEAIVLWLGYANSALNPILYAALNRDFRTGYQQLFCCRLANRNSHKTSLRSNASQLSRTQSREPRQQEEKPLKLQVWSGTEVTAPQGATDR
Note: assay procedure not described here.

Row | SMILES | AC50 (Androgen receptor) | AC50 (Histamine H1 receptor) | AC50 [1] | other results
1 | CCN(CC)C(=O)C1CN2CCc3cc(OC)c(OC)cc3C2CC1OC(C)=O (configuration not stated) [BENZQUINAMIDE] | > 30 µM | > 30 µM | > 30 µM | –
2 | CCCCC1(CC)C(=O)NC(=O)NC1=O [BUTETHAL] | > 30 µM | – | > 30 µM | –
3 | CCCC(C)(COC(N)=O)COC(=O)NC(C)C (configuration not stated) [CARISOPRODOL] | – | > 30 µM | – | AC50 [2]: > 10 µM; AC50 (Progesterone receptor): > 30 µM; AC50 [3]: > 30 µM; AC50 [4]: > 30 µM; AC50 [5]: > 10 µM; AC50 (Histamine H2 receptor): > 10 µM
4 | COCCOC(=O)C1=C(C)NC(C)=C(C(=O)OC/C=C/c2ccccc2)C1c1cccc([N+](=O)[O-])c1 (configuration not stated) [CILNIDIPINE] | – | > 30 µM | – | –
5 | CC1(C)C(/C=C/C=C/C=C/C=C2\N(CCCCS(=O)(=O)O)c3ccc4ccccc4c3C2(C)C)=[N+](CCCCS(=O)(=O)[O-])c2ccc3ccccc3c21 [INDOCYANINE GREEN ACID FORM] | 6.8 µM | > 30 µM | – | –
6 | Nc1nc2c(c(=O)[nH]1)N(C=O)C(CNc1ccc(C(=O)N[C@@H](CCC(=O)O)C(=O)O)cc1)CN2 (some centres not stated) [LEUCOVORIN] | > 30 µM | – | > 30 µM | –
7 | CCCC[C@H](C)C[C@H](O)/C=C/[C@H]1[C@H](O)CC(=O)[C@@H]1CCCC/C=C/C(=O)O [LIMAPROST] | – | > 30 µM | > 30 µM | –
8 | Cc1ccc(NC(=O)C2(c3ccc4c(c3)OC(F)(F)O4)CC2)nc1-c1cccc(C(=O)O)c1 [LUMACAFTOR] | – | > 30 µM | > 30 µM | –
9 | CCOC(=O)Nc1ccc2c(c1)N(C(=O)CCN1CCOCC1)c1ccccc1S2 [MORICIZINE] | > 30 µM | > 30 µM | > 30 µM | –
10 | O=C1Nc2ccc(Cl)cc2C(c2ccccc2)=NC1O (configuration not stated) [OXAZEPAM] | – | > 30 µM | – | AC50 [2]: > 10 µM; AC50 (Progesterone receptor): > 30 µM; AC50 [3]: > 30 µM; AC50 [4]: > 30 µM; AC50 [5]: > 10 µM; AC50 (Histamine H2 receptor): > 10 µM
11 | Cc1ccc(=O)n(-c2ccccc2)c1 [PIRFENIDONE] | – | > 30 µM | > 30 µM | –
12 | Cc1ccc2c(-c3ccccc3)nc(=O)n(C(C)C)c2c1 [PROQUAZONE] | – | > 30 µM | – | –
13 | Cc1cc2nc3c(=O)[nH]c(=O)nc-3n(C[C@H](O)[C@H](O)[C@H](O)COP(=O)(O)O)c2cc1C [RIBOFLAVIN 5'-PHOSPHATE] | > 3 µM | – | – | –
14 | CN1CCN(c2c(F)cc3c(=O)c(C(=O)O)cn4c3c2SCC4)CC1 [RUFLOXACIN] | – | > 30 µM | – | –
15 | CN1c2ccccc2C(NCCCCCCC(=O)O)c2ccc(Cl)cc2S1(=O)=O (configuration not stated) [TIANEPTINE] | – | > 30 µM | – | –
